Assay results reported in US8080688B2, “3, 4-disubstituted phenoxyphenylamidines and use thereof as fungicides” (Bayer Cropscience AG, priority 2007, dated 2011).
Like-named read-outs stand apart in the source and are kept apart here.

Experiment: logP
Type: physicochemical

logP (acidic, read-out: logP acidic): 2.69
logP (neutral, read-out: logP neutr.): 6.31
logP (pH 2.3, pH 2.3, read-out: log P (pH2.3)): 2.14
Structure (SMILES): CCN(C)C=Nc1cc(C)c(Oc2ccc3c(c2)CCCC3)cc1C [Compound 13, N-Ethyl-N-methyl-N′-[4-(5,6,7,8-tetrahydro-2-naphthoxy)-2,5-dimethylphenyl]formamidine]
